# “Also recorded” adds a separate entry of the source.
# Columns and labels:
# Aspergillus nigar = assay: Antimicrobial properties (MIC); format: cell-based
# Text: (§1) (1) Antimicrobial properties:
# [1] = test system: Bacillus subtilis PCI 219; assay: Antimicrobial properties (MIC); format: cell-based
# Text: as §1
# Candida albicans = assay: Antimicrobial properties (MIC); format: cell-based
# Text: as §1
# Escherichia coli NIHJ = assay: Antimicrobial properties (MIC); format: cell-based
# Text: as §1
# [2] = test system: Klebsiella pneumonia PCI 602; assay: Antimicrobial properties (MIC); format: cell-based
# Text: as §1
# [3] = test system: Pseudomonas aeruginosa P-3; assay: Antimicrobial properties (MIC); format: cell-based
# Text: as §1
# Saccharomyces sake = assay: Antimicrobial properties (MIC); format: cell-based
# Text: as §1
# Salmonella typhimurium = assay: Antimicrobial properties (MIC); format: cell-based
# Text: as §1
# Sarcina lutea PCI 1001 = assay: Antimicrobial properties (MIC); format: cell-based
# Text: as §1
# Shigella sonnai = assay: Antimicrobial properties (MIC); format: cell-based
# Text: as §1
# [4] = test system: Staphylococcus aureus FDA 209P; assay: Antimicrobial properties (MIC); format: cell-based
# Text: as §1
# Trichophyton ferrugineum = assay: Antimicrobial properties (MIC); format: cell-based
# Text: as §1
# Pyricularia oryzae = format: cell-based
# [5] = test system: Ehrlich ascites carcinoma; assay: Effect on Ehrlich ascites carcinoma in mice; format: in vivo, mice (ddY, male, 6 weeks age)
# Method: Ehrlich ascites carcinoma, 2×10^6 cells, is inoculated into mice (ddY, male, 6 weeks age) intra peritoneally, administered awamycin as shown in the table, number of survival dates is observed.
# Administered date is designates as 0th day at tumor inoculation date. Number of survival dates is shown as mean value in 4-5 mice in one group. Increased life span is calculated according to the following equation. [formula]
# Sarcoma-180 = assay: Effect on Sarcoma-180 in mice; format: in vivo, mice (ICR, male, 6 weeks age)
# Text: Sarcome-180 (1×10^5 cells) is inoculated intra peritoneally in mice (ICR, male, 6 weeks age), administered the drug and the number of survival dates is observed.
# Gram positive bacteria = assay: Antibacterial action, Gram positive bacteria (summary); format: cell-based; conditions: summary in words
# Text: as §1
# Gram negative bacteria = assay: Antimicrobial action, Gram negative bacteria (summary); format: cell-based; conditions: summary in words
# Text: as §1
# yeast and fungi = assay: Antimicrobial action, yeast and fungi (summary); format: cell-based; conditions: summary in words
# Text: as §1
# Solubility = format: physicochemical
# Stability in heating = format: physicochemical; conditions: vacuum concentration preferably controlled below 60° C.
structure (smiles),measurement,setting,value
COC(=O)C1C(O)C(C)C(O)C(C)/C=C(/C)C(=O)c2c(OC)c(C)c(O)c3c2C(=O)C(SC)=C(NC(=O)/C(C)=C\C=C\C(C)C(O)C(C)C1O)C3=O (stereo not shown) [awamycin],MIC,Aspergillus nigar,> 100 µg/mL
same,MIC,[1],0.1 µg/mL
same,MIC,Candida albicans,> 100 µg/mL
same,MIC,Escherichia coli NIHJ,> 100 µg/mL
same,MIC,[2],> 100 µg/mL
same,MIC,[3],> 100 µg/mL
same,MIC,Saccharomyces sake,> 100 µg/mL
same,MIC,Salmonella typhimurium,> 100 µg/mL
same,MIC,Sarcina lutea PCI 1001,0.05 µg/mL
same,MIC,Shigella sonnai,> 100 µg/mL
same,MIC,[4],0.8 µg/mL
same,MIC,Trichophyton ferrugineum,> 100 µg/mL
same,MIC,Pyricularia oryzae,> 100 µg/mL
same,Increased life span,"[5]; 6.3 mg/kg/day, administering date 1-9",73%
same,Number of survival date (median),"[5]; 6.3 mg/kg/day, administering date 1-9, control 22",38
same,Increased life span,"[5]; 25 mg/kg/day, administering date 0, 1",100%
same,Number of survival date (median),"[5]; 25 mg/kg/day, administering date 0, 1,, control 20",40
same,antitumor activity / growth inhibitory activity,"[5]; Ehrlich ascites carcinoma, in words",has antitumor activity; also recorded: exhibits growth inhibitory activity
same,Increased life span,"Sarcoma-180; 0.75 mg/kg/day, administering day 1-9",64%
same,Number of survival dates (mean value),"Sarcoma-180; 0.75 mg/kg/day, administering day 1-9, control 14",23
same,Increased life span,"Sarcoma-180; 1.5 mg/kg/day, administering day 1-9",200%
same,Number of survival dates (mean value),"Sarcoma-180; 1.5 mg/kg/day, administering day 1-9, control 14",42
same,Increased life span,"Sarcoma-180; 3.1 mg/kg/day, administering day 1-9",> 329%
same,Number of survival dates (mean value),"Sarcoma-180; 3.1 mg/kg/day, administering day 1-9, control 14",> 60
same,Increased life span,"Sarcoma-180; 6.3 mg/kg/day, administering day 1-9",186%
same,Number of survival dates (mean value),"Sarcoma-180; 6.3 mg/kg/day, administering day 1-9, control 14",40
same,Increased life span,"Sarcoma-180; 25 mg/kg/day, administering day 0, 1",100%
same,Number of survival dates (mean value),"Sarcoma-180; 25 mg/kg/day, administering day 0, 1,, control 12",24
same,antitumor activity / growth inhibitory activity,"Sarcoma-180; Sarcoma-180, in words",has antitumor activity; also recorded: exhibits growth inhibitory activity
same,antibacterial action against some Gram positive bacteria,Gram positive bacteria,shows antibacterial action against some of Gram positive bacteria; also recorded: active against Gram positive bacteria
same,action against Gram negative bacteria,Gram negative bacteria,no action
same,action against yeast and fungi,yeast and fungi,no action
same,Solubility,"Solubility; alcohols (methanol, ethanol), chlorinated methanes, ketones, esters, benzene, toluene, dimethylformamide, dimethyl sulfoxide",soluble
same,Solubility,Solubility; diethyl ether,slightly soluble
same,Solubility,Solubility; hexane and petroleum ether,insoluble
same,Solubility,Solubility; water,slightly soluble
same,Stability in heating,Stability in heating,stable in heating
